Measurements taken from article PMC8222254, “Self-assembly of an anion receptor with metal-dependent kinase inhibition and potent in vitro anti-cancer properties” (Nature Communications, 2021).
“And” between values parts separate entries of the source, which are not always exact repeats. Equal entries are not always repeated. Where two headings read alike, the source gives them in different places.

What was measured:
Test in all cases: Chemosensitivity, 96 h continuous exposure, MTT assay
Format in all cases: cell-based, human
A549 = system: A549
Text: (§1) All cell lines were purchased from and maintained as monolayers as described by the American Type Culture Collection with the exception of the p53^+/+ and p53^−/− isogenic clones of HCT116 human colorectal adenocarcinoma cells which were a kind gift from Professor Bert Vogelstein[54]. GBM1 cells were established from a primary GBM tumour by Heiko Wurdak and colleagues[32],[33]. Non-cancerous adult brain neural progenitor (NP1) cells were derived from a patient undergoing surgery to treat epilepsy[32],[33]. Cell culture and growth media for NP1 and GBM1 cells were as described[32],[33]. The response of cells following a continuous 96-h exposure to test compounds and platinates was determined using the MTT assay. Potency was recorded as the IC50 and the selectivity index (SI) was defined as the ratio of IC50 values for non-cancer to cancer cell lines with values >1 representing selectivity for cancer cells as opposed to non-cancer cells.
(§2) All cell lines used were maintained at low passage in antibiotic-free media. HT29, DLD-1, HCT116 p53^+/+ and HCT116 p53^−/− are all colorectal adenocarcinoma cell lines derived from different individuals and harbour different combinations of oncogenic lesions (except for the HCT116 isogenic cancer cell clones that are genetically identical except for p53 status). PSN-1, BxPC-3 and MiaPaCa2 are pancreatic carcinoma cell lines and A549 and H460 are lung carcinoma cell lines. HT29, DLD-1, PSN-1, BxPC-3, A549 and H460 cell lines were cultured in RPMI-1640 growth media (Sigma) containing 2 mM L-glutamine, 1 mM sodium pyruvate and 10% foetal bovine serum (FBS). HCT116 (p53^+/+ and p53^−/−) and MiaPaCa2 cell lines were cultured in Dulbecco’s Modified Eagle’s Medium (Sigma), 2 mM L-glutamine and 10% FBS. The ARPE-19 retinal epithelial non-cancer cell line was cultured in DMEM/F12 media (Gibco), 2 mM L-glutamine, 1 mM sodium pyruvate and 10% FBS. The MCF10A non-cancerous human breast epithelial cell line was cultured in Minimal Essential Media Eagle (Sigma), 2 mM L-glutamine, 1 mM sodium pyruvate, 10% FBS and 1x non-essential amino acids (NEAA). NP1 and GBM1 cells were cultured on plasticware coated with poly-L-ornithine (5 µg/ml) and laminin (2.4 µg/ml)[32],[33]. NP1 cells were grown in DMEM/F12 media (Gibco) supplemented with 5% FBS, 20 ng/ml hFGF, 20 ng/ml rhEGF, 0.5x B-27 supplement (Gibco), 0.5x N-2 supplement (Gibco) and 1x GLUTAMAX (Gibco). GBM1 cells were cultured in Neurobasal media (Gibco) supplemented with 40 ng/ml hFGF, 40 ng/ml rhEGF, 0.5x B-27 supplement (Gibco) and 0.5x N-2 supplement (Gibco).
(§3) [L2(Metal)3]^6+ and all the other self-assembling complexes were freshly formed by adding DMSO to individual components and mixing together by pipetting. These were then further diluted in cell culture media such that the final DMSO concentration that cells were exposed to was 0.2% (vehicle control). Cisplatin, oxaliplatin and carboplatin were dissolved in phosphate buffered saline. Cell lines were seeded into 96 well plates at 2 × 10^3 cells per well and incubated overnight at 37 °C. GBM1 cancer stem-like cells were seeded at 3 × 10^3 cells per well and NP1 neural progenitors were seeded at 1.5 × 10^3 cells per well. The following day, media was removed and replaced with fresh media containing test compounds at a range of concentrations. Cells were incubated with test compounds for a further 96 h after which the media was removed and replaced with fresh media (200 μl/well). MTT was added (20 μl at 5 mg/ml) and cells were incubated for a further 4 h. Media and MTT were removed and formazan crystals were dissolved in 150 μl of DMSO and the absorbance of the resulting solution determined at 540 nm. Dose response curves were constructed, and the concentration required to reduce cell growth by 50% (IC50) determined.

ARPE-19 non-cancer cells = system: ARPE-19 non-cancer cells
Text: as §1, §2, §3

BxPC3 = system: BxPC3
Text: as §1, §2, §3

DLD-1 = system: DLD-1
Text: as §1, §2, §3

HCT116 p53+/+ = system: HCT116 p53+/+
Text: as §1, §2, §3

MiaPaCa2 = system: MiaPaCa2
Text: as §1, §2, §3

PSN1 = system: PSN1
Text: as §1, §2, §3

O=S(=O)([O-])[O-].[Cu+2].[Cu+2].[Cu+2].c1ccc(-c2csc(NCCN(CCNc3nc(-c4ccccn4)cs3)CCNc3nc(-c4ccccn4)cs3)n2)nc1.c1ccc(-c2csc(NCCN(CCNc3nc(-c4ccccn4)cs3)CCNc3nc(-c4ccccn4)cs3)n2)nc1 [[L2Cu3(SO4)]4+]
IC50 (A549; A549, mean of replicates, read-out: Mean IC50): 680 nM
IC50 (A549; A549, read-out: Mean IC50 values): 680 nM
IC50 (A549; A549, single replicate, read-out: IC50 values for each replicate): 747 nM and 620 nM and 667 nM and 685 nM
Selectivity index (ARPE19) (A549; IC50 ARPE-19 / IC50 A549): 176.93
Selectivity index (MCF10A) (A549; IC50 MCF10A / IC50 A549): 73.14
Relative potency (+ anion to no anion), Ratio + anion:no anion (A549; ratio of IC50, A549): 2.92
Selectivity indices relative to ARPE-19, Ratio + anion:no anion (A549; ratio of SI (ARPE-19), A549): 0.783
Selectivity indices relative to MCF10A, Ratio + anion:no anion (A549; ratio of SI (MCF 10A), A549): 0.353
IC50 (ARPE-19 non-cancer cells; ARPE-19, mean of replicates, read-out: Mean IC50): 120000 nM
IC50 (ARPE-19 non-cancer cells; ARPE-19, single replicate, read-out: IC50 values for each replicate): 126000 nM and 121000 nM and 113000 nM
IC50 (ARPE-19 non-cancer cells; ARPE-19 non-cancer, read-out: Mean IC50 values): 120000 nM
Relative potency (+ anion to no anion), Ratio + anion:no anion (ARPE-19 non-cancer cells; ratio of IC50, ARPE-19): 2.29
IC50 (BxPC3; BXPC3, mean of replicates, read-out: Mean IC50): 491 nM
IC50 (BxPC3; BXPC3, read-out: Mean IC50 values): 491 nM
IC50 (BxPC3; BXPC3, single replicate, read-out: IC50 values for each replicate): 544 nM and 586 nM and 260 nM and 478 nM and 588 nM
Selectivity index (ARPE19) (BxPC3; IC50 ARPE-19 / IC50 BXPC3): 245.03
Selectivity index (MCF10A) (BxPC3; IC50 MCF10A / IC50 BXPC3): 101.29
Relative potency (+ anion to no anion), Ratio + anion:no anion (BxPC3; ratio of IC50, BXPC3): 1.68
Selectivity indices relative to ARPE-19, Ratio + anion:no anion (BxPC3; ratio of SI (ARPE-19), BXPC3): 1.364
Selectivity indices relative to MCF10A, Ratio + anion:no anion (BxPC3; ratio of SI (MCF 10A), BXPC3): 0.615
IC50 (DLD-1; DLD-1, mean of replicates, read-out: Mean IC50): 650 nM
IC50 (DLD-1; DLD-1, read-out: Mean IC50 values): 650 nM
Selectivity index (ARPE19) (DLD-1; IC50 ARPE-19 / IC50 DLD-1): 185.09
Selectivity index (MCF10A) (DLD-1; IC50 MCF10A / IC50 DLD-1): 76.51
Relative potency (+ anion to no anion), Ratio + anion:no anion (DLD-1; ratio of IC50, DLD-1): 4.92
Selectivity indices relative to ARPE-19, Ratio + anion:no anion (DLD-1; ratio of SI (ARPE-19), DLD-1): 0.464
Selectivity indices relative to MCF10A, Ratio + anion:no anion (DLD-1; ratio of SI (MCF 10A), DLD-1): 0.209
IC50 (HCT116 p53+/+; HCT116 p53+/+, mean of replicates, read-out: Mean IC50): 668 nM
IC50 (HCT116 p53+/+; HCT116 p53+/+, read-out: Mean IC50 values): 668 nM
IC50 (HCT116 p53+/+; HCT116 p53+/+, single replicate, read-out: IC50 values for each replicate): 643 nM and 713 nM and 647 nM
Selectivity index (ARPE19) (HCT116 p53+/+; IC50 ARPE-19 / IC50 HCT116 p53+/+): 180.10
Selectivity index (MCF10A) (HCT116 p53+/+; IC50 MCF10A / IC50 HCT116 p53+/+): 74.45
Relative potency (+ anion to no anion), Ratio + anion:no anion (HCT116 p53+/+; ratio of IC50, HCT116 p53+/+): 1.35
Selectivity indices relative to ARPE-19, Ratio + anion:no anion (HCT116 p53+/+; ratio of SI (ARPE-19), HCT116 p53+/+): 1.697
Selectivity indices relative to MCF10A, Ratio + anion:no anion (HCT116 p53+/+; ratio of SI (MCF 10A), HCT116 p53+/+): 0.765
Selectivity index (ARPE19) (MiaPaCa2; IC50 ARPE-19 / IC50 MiaPaCa2): 2.28
Selectivity index (MCF10A) (MiaPaCa2; IC50 MCF10A / IC50 MiaPaCa2): 0.94
IC50 (MiaPaCa2; MiaPaCa2, mean of replicates, read-out: Mean IC50): 52700 nM
IC50 (MiaPaCa2; MiaPaCa2, read-out: Mean IC50 values): 52700 nM
IC50 (MiaPaCa2; MiaPaCa2, single replicate, read-out: IC50 values for each replicate): 63700 nM and 63600 nM and 47200 nM and 43500 nM and 49700 nM and 48300 nM
Relative potency (+ anion to no anion), Ratio + anion:no anion (MiaPaCa2; ratio of IC50, MiaPaCa2): 4.46
Selectivity indices relative to ARPE-19, Ratio + anion:no anion (MiaPaCa2; ratio of SI (ARPE-19), MiaPaCa2): 0.512
Selectivity indices relative to MCF10A, Ratio + anion:no anion (MiaPaCa2; ratio of SI (MCF 10A), MiaPaCa2): 0.231
Selectivity index (ARPE19) (PSN1; IC50 ARPE-19 / IC50 PSN1): 246.54
Selectivity index (MCF10A) (PSN1; IC50 MCF10A / IC50 PSN1): 101.91
IC50 (PSN1; PSN1, mean of replicates, read-out: Mean IC50): 488 nM
IC50 (PSN1; PSN1, read-out: Mean IC50 values): 488 nM
IC50 (PSN1; PSN1, single replicate, read-out: IC50 values for each replicate): 449 nM and 779 nM and 235 nM
Relative potency (+ anion to no anion), Ratio + anion:no anion (PSN1; ratio of IC50, PSN1): 0.0756
Selectivity indices relative to ARPE-19, Ratio + anion:no anion (PSN1; ratio of SI (ARPE-19), PSN1): 30.213
Selectivity indices relative to MCF10A, Ratio + anion:no anion (PSN1; ratio of SI (MCF 10A), PSN1): 13.624
